Measurements taken from PMC8477953, “Carnitine is a pharmacological allosteric chaperone of the human lysosomal α-glucosidase” (Journal of Enzyme Inhibition and Medicinal Chemistry, 2021).
Each block holds one molecule with its values, some of them ahead of it.

How the values were obtained:
Type in all cases: binding
[1] = molecular target: T1, lysosomal acid α-glucosidase (rhGAA) (Homo sapiens, UniProt P10253); test: DSF (SYPRO Orange) titration at pH […] with Kd from cooperative model fit
T1 construct: gene GAA; recombinant human GAA (Myozyme)

[2] = molecular target: T1, lysosomal acid α-glucosidase (rhGAA); test: DSF thermal shift at […], pH […]; conditions: read-out: delta_Tm
[3] = molecular target: T1, lysosomal acid α-glucosidase (rhGAA); test: DSF thermal shift at […], pH […]; conditions: read-out: delta_Tm; remark: listed apart in the source
[4] = molecular target: T1, lysosomal acid α-glucosidase (rhGAA); test: DSF thermal shift, dose-dependent; rescue of rhGAA activity at pH […]; conditions: read-out: delta_Tm

Kd [1]: 9.16 ± 1.02 mM
Structure (SMILES): C[N+](C)(C)C[C@H](O)CC(=O)[O-] [compound 6, L-carnitine]

Structure (SMILES): OC[C@H]1NC[C@H](O)[C@@H](O)[C@@H]1O [compound 1, DNJ]
ΔTm at 100 µM [2]: 12.1 °C

ΔTm at 10000 µM [3]: 9.6 ± 0.2 °C
Structure (SMILES): CC(=O)N[C@@H](CS)C(=O)O [compound 3, N-acetylcysteine]

Structure (SMILES): C[N+](C)(C)C[C@@H](O)CC(=O)[O-] [compound 7, D-carnitine]
ΔTm at 5000 µM [4]: 4.9 ± 0.1 °C
